Measured values as given in patent publication US20240041877A1, “DOSAGE REGIME AND METHOD FOR TREATING PULMONARY ARTERIAL HYPERTENSION” (Altavant Sciences GmbH, priority 2019, published 2024).

How the values were obtained:
Type in all cases: in vivo, human
[1] = Part 1 (SAD): urine pharmacokinetics (amount excreted, renal clearance) after a single oral dose of KAR5585
[2] = system: plasma 5-HIAA (a PD marker of 5-HT synthesis); experiment: Part 2 (MAD) biomarker: plasma 5-HIAA change from Day 1 predose; details: for mean reduction from Day 1 to Day 14 in plasma 5-HIAA: KAR5585 100 mg BID
Excerpt: (§1) Biomarkers were to be evaluated in Part 2 by measuring concentrations of serotonin (5-hydroxytryptamine [5-HT]) in serum and 5-hydroxyindoleacetic acid (5-HIAA) in plasma and urine. As well, the relationship of biomarkers to PK parameters was to be evaluated.
(§2) The biomarker analysis was to be based on the Biomarker Population (all subjects with evaluable biomarker measurements at baseline [Day 1 predose] and at least one after dosing [Day 7 or Day 14]).
(§3) Biomarker data were to be collected only in Part 2. The following biomarkers were to be analyzed: • Serum 5-HT • Plasma 5-HIAA • Urine 5-HIAA/24 hours (as measured, adjusted, estimated, and per gram creatinine)
The a priori primary biomarker endpoint was to be the change in plasma 5-HIAA concentration on Day 14 from Day 1.
(§4) Summary statistics (mean, standard deviation [SD], median, minimum [Min], and maximum [Max]) were to be tabulated for each biomarker, by Cohort, with absolute and relative (%) changes from Day 1 predose.
(§5) The values were to be tabulated with P values testing whether the difference of changes was equal to 0.
(§6) The biomarker portion of the study was conducted in Part 2 MAD using the Biomarker Population. The biomarkers evaluated were serum 5-HT and plasma 5-HIAA, as well as urine 5-HIAA/24 hours (as measured, adjusted, estimated, and per gram creatinine). Urinary 5-HIAA was determined by a validated (21 C.F.R. 58, GLP-compliant) method using liquid chromatographic separation and tandem mass spectrometry detection.

[3] = Safety and tolerability in healthy adult subjects (SAD and MAD)
serum 5-HT = experiment: Part 2 (MAD) biomarker: serum 5-HT change from Day 1 predose
Excerpt: as §1, §2, §3, §4, §5, §6

[4] = KAR5585 in urine, 1200 mg KAR5585 single oral dose, mean
[5] = all doses pooled, predose Day 7
[6] = all doses pooled, predose Day 14

What does the source list for CCOC(=O)[C@@H]1CC2(CCN(c3cc(O[C@H](c4ccc(Cl)cc4-c4ccccc4)C(F)(F)F)nc(N)n3)CC2)CN1 [KAR5585, (S)-ethyl 8-(2-amino-6-((R)-1-(5-chloro-[1,1′-biphenyl]-2-yl)-2,2,2-trifluoroethoxy)pyrimidin-4-yl)-2,8-diazaspiro[4.5]decane-3-carboxylate]?
Amount Excreted (Ae) [1, 4]: 0 µg; Total Excreted (%) [1, 4]: 0%; Total Excreted (%) ([1]; KAR5585 in urine, 2000 mg KAR5585 single oral dose, mean): 0.0000751%; CL renal ([1]; human, urine, po, 400 mg, KAR5585, 400 mg (Fasted) KAR5585 single oral dose, mean): 0.858 mL/min; amount excreted (Ae) in urine ([1]; single oral KAR5585, all dose levels): less than 0.004 % of the administered dose; Plasma 5-HIAA: mean difference of % change from Day 1 between KAR5585 and placebo ([2]; 100 mg fasting, predose Day 7): 23.67%; Plasma 5-HIAA: mean difference of absolute change from Day 1 between KAR5585 and placebo ([2]; 100 mg fasting, predose Day 7): 0.33 ng/mL; Plasma 5-HIAA: mean difference of % change from Day 1 between KAR5585 and placebo ([2]; 100 mg fasting, predose Day 14): −48.83%; Plasma 5-HIAA: mean difference of absolute change from Day 1 between KAR5585 and placebo ([2]; 100 mg fasting, predose Day 14): -5.92 ng/mL; Plasma 5-HIAA: mean difference of % change from Day 1 between KAR5585 and placebo ([2]; 100 mg fed, predose Day 7): −48.56%; Plasma 5-HIAA: mean difference of absolute change from Day 1 between KAR5585 and placebo ([2]; 100 mg fed, predose Day 7): -4.56 ng/mL; Plasma 5-HIAA: mean difference of % change from Day 1 between KAR5585 and placebo ([2]; 100 mg fed, predose Day 14): −52.70%; Plasma 5-HIAA: mean difference of absolute change from Day 1 between KAR5585 and placebo ([2]; 100 mg fed, predose Day 14): -4.50 ng/mL; Plasma 5-HIAA: mean difference of % change from Day 1 between KAR5585 and placebo ([2]; 200 mg fed, predose Day 7): 12.06%; Plasma 5-HIAA: mean difference of absolute change from Day 1 between KAR5585 and placebo ([2]; 200 mg fed, predose Day 7): 1.22 ng/mL; Plasma 5-HIAA: mean difference of % change from Day 1 between KAR5585 and placebo ([2]; 200 mg fed, predose Day 14): −52.46%; Plasma 5-HIAA: mean difference of absolute change from Day 1 between KAR5585 and placebo ([2]; 200 mg fed, predose Day 14): -5.25 ng/mL; Plasma 5-HIAA: mean difference of % change from Day 1 between KAR5585 and placebo ([2]; 400 mg fed, predose Day 7): −76.47%; Plasma 5-HIAA: mean difference of absolute change from Day 1 between KAR5585 and placebo ([2]; 400 mg fed, predose Day 7): -11.44 ng/mL; Plasma 5-HIAA: mean difference of % change from Day 1 between KAR5585 and placebo ([2]; 400 mg fed, predose Day 14): −73.45%; Plasma 5-HIAA: mean difference of absolute change from Day 1 between KAR5585 and placebo ([2]; 400 mg fed, predose Day 14): -10.69 ng/mL; mean reduction from Day 1 to Day 14 in plasma 5-HIAA ([2]; fasting): −28.71%; mean reduction from Day 1 to Day 14 in plasma 5-HIAA ([2]; fed): −32.58%; mean percent change in plasma 5-HIAA from Day 1 to Day 7 ([2]; KAR5585 400 mg BID, fed): −56.67%; mean percent change in plasma 5-HIAA concentration from Day 1 to Day 14 ([2]; KAR5585 400 mg BID, fed, listed as KAR5575): −53.33%; Plasma 5-HIAA: mean difference of % change from Day 1 between KAR5585 and placebo [2, 5]: −22.33%; Plasma 5-HIAA: mean difference of absolute change from Day 1 between KAR5585 and placebo [2, 5]: -3.61 ng/mL; Plasma 5-HIAA: mean difference of % change from Day 1 between KAR5585 and placebo [2, 6]: −57.11%; Plasma 5-HIAA: mean difference of absolute change from Day 1 between KAR5585 and placebo [2, 6]: -6.69 ng/mL; mean difference vs placebo of absolute and percent changes from Day 1 to Day 14 in plasma 5-HIAA, significance ([2]; each dose group and all doses combined): statistically significant in favor of KAR5585 compared to placebo in each dose group and for all doses combined at Day 14; safety and tolerability ([3]; 100 mg (fasting), 100, 200, 400 mg (fed) BID up to 14 days, 36 healthy adult subjects): safe and well-tolerated; tolerability ([3]; 400 mg single oral dose, fed, 9 healthy adult subjects): well-tolerated; tolerability, whole trial ([3]; Part 1 and Part 2, all doses): well tolerated throughout the trial; safety and tolerability ([3]; single ascending oral dose 100-2000 mg, fasting, 54 healthy adult subjects): safe and well-tolerated; Serum 5-HT: mean difference of % change from Day 1 between KAR5585 and placebo (serum 5-HT; 100 mg fasting, predose Day 7): −10.97%; Serum 5-HT: mean difference of absolute change from Day 1 between KAR5585 and placebo (serum 5-HT; 100 mg fasting, predose Day 7): -12.97 ng/mL; Serum 5-HT: mean difference of % change from Day 1 between KAR5585 and placebo (serum 5-HT; 100 mg fasting, predose Day 14): −15.92%; Serum 5-HT: mean difference of absolute change from Day 1 between KAR5585 and placebo (serum 5-HT; 100 mg fasting, predose Day 14): -17.39 ng/mL; Serum 5-HT: mean difference of % change from Day 1 between KAR5585 and placebo (serum 5-HT; 100 mg fed, predose Day 7): −11.02%; Serum 5-HT: mean difference of absolute change from Day 1 between KAR5585 and placebo (serum 5-HT; 100 mg fed, predose Day 7): -15.75 ng/mL; Serum 5-HT: mean difference of % change from Day 1 between KAR5585 and placebo (serum 5-HT; 100 mg fed, predose Day 14): −0.47%; Serum 5-HT: mean difference of absolute change from Day 1 between KAR5585 and placebo (serum 5-HT; 100 mg fed, predose Day 14): 5.08 ng/mL; Serum 5-HT: mean difference of % change from Day 1 between KAR5585 and placebo (serum 5-HT; 200 mg fed, predose Day 7): −21.64%; Serum 5-HT: mean difference of absolute change from Day 1 between KAR5585 and placebo (serum 5-HT; 200 mg fed, predose Day 7): -28.53 ng/mL; Serum 5-HT: mean difference of % change from Day 1 between KAR5585 and placebo (serum 5-HT; 200 mg fed, predose Day 14): −11.43%; Serum 5-HT: mean difference of absolute change from Day 1 between KAR5585 and placebo (serum 5-HT; 200 mg fed, predose Day 14): -5.79 ng/mL; Serum 5-HT: mean difference of % change from Day 1 between KAR5585 and placebo (serum 5-HT; 400 mg fed, predose Day 7): 2.09%
